Experimental data as given in patent US20050026189A1, “Microbial operons” (priority 2003, published 2005).
Values after ≈ are worked out from the molar mass of the structure shown. Like-named read-outs stand apart in the source and are kept apart here.

Key:
[1] = test system: E. coli transcribing antisense RNA to rplL and rplJ (AS-rplL/J); test: microbe, parasite or virus in culture; assay type: cell-based; conditions: for Fold Increase in Sensitivity: IC50 without IPTG versus IC50 with 400 μM IPTG; for Sensitivity Increased?: statistically significant decrease in the IC50 value in the presence of inducer (IPTG); for IC50: Escherichia coli
Procedure: The effectiveness of the above assays was validated using proliferation-required genes from E. coli which were identified using procedures similar to those described above. Antibiotics of various chemical classes and modes of action were purchased from Sigma Chemicals (St. Louis, Mo.). Stock solutions were prepared by dissolving each antibiotic in an appropriate aqueous solution based on information provided by the manufacturer. The final working solution of each antibiotic contained no more than 0.2% (w/v) of any organic solvent. To determine their potency against a bacterial strain engineered for transcription of an antisense comprising a nucleotide sequence complementary to a proliferation-required 50S ribosomal protein, each antibiotic was serially diluted two- or three-fold in growth medium supplemented with the appropriate antibiotic for maintenance of the antisense construct. At least ten dilutions were prepared for each antibiotic. 25 μL aliquots of each dilution were transferred to discrete wells of a 384-well microplate (the assay plate) using a multi-channel pipette. Quadruplicate wells were used for each dilution of an antibiotic under each treatment condition (plus and minus inducer). Each assay plate contained twenty wells for cell growth controls (growth medium replacing antibiotic), ten wells for each treatment (plus and minus inducer, in this example IPTG). Assay plates were usually divided into the two treatments: half the plate containing induced cells and an appropriate concentrations of inducer (in this example IPTG) to maintain the state of induction, the other half containing non-induced cells in the absence of IPTG.
Cells for the assay were prepared as follows. Bacterial cells containing a construct, from which transcription of antisense nucleic acid comprising a nucleotide sequence complementary to rplL and rplJ (AS-rplL/J), which encode proliferation-required 50S ribosomal subunit proteins, is inducible in the presence of IPTG, were grown into exponential growth (OD600 0.2 to 0.3) and then diluted 1:100 into fresh medium containing either 400 μM or 0 μM inducer (IPTG). These cultures were incubated at 37° C. for 2.5 hr. After a 2.5 hr incubation, induced and non-induced cells were respectively diluted into an assay medium at a final OD600 value of 0.0004. The medium contained an appropriate concentration of the antibiotic for the maintenance of the antisense construct. In addition, the medium used to dilute induced cells was supplemented with 800 μM IPTG so that addition to the assay plate would result in a final IPTG concentration of 400 μM. Induced and non-induced cell suspensions were dispensed (25 μl/well) into the appropriate wells of the assay plate as discussed previously. The plate was then loaded into a plate reader, incubated at constant temperature, and cell growth was monitored in each well by the measurement of light scattering at 595 nm. Growth was monitored every 5 minutes until the cell culture attained a stationary growth phase. For each concentration of antibiotic, a percentage inhibition of growth was calculated at the time point corresponding to mid-exponential growth for the associated control wells (no antibiotic, plus or minus IPTG). For each antibiotic and condition (plus or minus IPTG), a plot of percent inhibition versus log of antibiotic concentration was generated and the IC50 determined.

[2] = test system: Staphylococcus aureus cells transcribing antisense to gyrB; test: Antibiotic potency in Staphylococcus aureus cells with and without xylose-induced antisense to the Beta subunit of DNA gyrase (FIG. 10); assay type: cell-based; conditions: 12 mM xylose versus 0 mM xylose; antisense to β subunit of gyrase
Procedure: Antibiotics of various chemical classes and modes of action were purchased from chemical suppliers, for example Sigma Chemicals (St. Louis, Mo). Stock solutions were prepared by dissolving each antibiotic in an appropriate aqueous solution based on information provided by the manufacturer. The final working solution of each antibiotic contained no more than 0.2% (w/v) of any organic solvent.
To determine its potency against a bacterial strain containing an antisense nucleic acid comprising a nucleotide sequence complementary to the nucleotide sequence encoding the Beta subunit of DNA gyrase (which is required for proliferation) under the control of a xylose inducible promoter, each antibiotic was serially diluted two- or three-fold in growth medium supplemented with the appropriate antibiotic for maintenance of the antisense construct. At least ten dilutions were prepared for each antibiotic.
Aliquots (25 μL) of each dilution were transferred to discrete wells of a 384-well microplate (the assay plate) using a multi-channel pipette. Quadruplicate wells were used for each dilution of an antibiotic under each treatment condition (plus and minus inducer). Each assay plate contained twenty wells for cell growth controls (growth medium, no antibiotic), ten wells for each treatment (plus and minus inducer, xylose, in this example). Half the assay plate contained induced cells (in this example Staphylococcus aureus cells) and appropriate concentrations of inducer (xylose, in this example) to maintain the state of induction while the other half of the assay plate contained non-induced cells maintained in the absence of inducer.
Cells of a bacterial clone containing a construct in which transcription of antisense comprising a nucleotide sequence complementary to the sequence encoding the Beta subunit of DNA gyrase under the control of the xylose inducible promoter (S1M10000001F08) were grown into exponential growth (OD600 0.2 to 0.3) and then diluted 1:100 into fresh medium containing either 12 mM or 0 mM inducer (xylose). These cultures were incubated at 37° C. for 2.5 hr. The presence of inducer (xylose) in the medium initiates and maintains production of antisense RNA from the antisense construct. After a 2.5 hr incubation, induced and non-induced cells were respectively diluted into an assay medium containing an appropriate concentration of the antibiotic for the maintenance of the antisense construct. In addition, medium used to dilute induced cells was supplemented with 24 mM xylose so that addition to the assay plate would result in a final xylose concentration of 12 mM. The cells were diluted to a final OD600 value of 0.0004.
Induced and non-induced cell suspensions were dispensed (25 μl/well) into the appropriate wells of the assay plate as discussed previously. The plate was then loaded into a plate reader and incubated at constant temperature while cell growth was monitored in each well by the measurement of light scattering at 595 nm. Growth was monitored every 5 minutes until the cell culture attained a stationary growth phase. For each concentration of antibiotic, a percentage inhibition of growth was calculated at the time point corresponding to mid-exponential growth for the associated control wells (no antibiotic, plus or minus xylose). For each antibiotic and condition (plus or minus xylose), plots of percent inhibition versus Log of antibiotic concentration were generated and IC50s, determined.

[3] = test system: E. coli transcribing IPTG-inducible antisense clones; test: Cell-based assay: antibiotic sensitivity of E. coli transcribing antisense to ribosomal protein genes or to genes not involved in protein synthesis (FIGS. 8, 9); parameters: species or system Escherichia coli
Description: The effectiveness of the above cell-based assay was validated using constructs transcribing antisense RNA to the proliferation required Escherichia coli genes rplL, rplJ, and rplW encoding ribosomal proteins L7/L12, L10 and L23 respectively. These proteins are essential components of the protein synthesis apparatus of the cell and as such are required for proliferation. These constructs were used to test the effect of antisense transcription on cell sensitivity to antibiotics known to bind to the ribosome and thereby inhibit protein synthesis. Constructs transcribing antisense RNA to several other genes (elaD, visC, yohH, and atpE/B), the products of which are not involved in protein synthesis were used for comparison. […]
The cell populations containing vectors producing AS-elaD or AS-rplW were exposed to a range of IPTG concentrations in liquid medium to obtain the growth inhibitory dose curve for each clone (FIG. 7). First, seed cultures were grown to a particular turbidity measured by the optical density (OD) of the growth solution. […] The cells were grown for up to 15 hours and the extent of growth was determined by measuring the optical density of the cultures at 600 nm. […]

Structure (SMILES)	Fold Increase in Sensitivity [1]	Sensitivity Increased? [1]	potency in induced cells as compared to uninduced cells [2]	sensitivity to erythromycin ([3]; initial experiments, clones transcribing antisense to protein synthesis genes (L7/L12 & L10, L7/L12 alone, L22, L18, rRNA, Elongation Factor G))	sensitivity to antibiotics which do not inhibit protein synthesis ([3]; clone transcribing antisense to rplL and rplJ (AS-rplL/J))	IC50 ([1]; read-out: IC50 (+IPTG))	IC50 ([1]; read-out: IC50 (−IPTG))
CO/N=C(\C(=O)N[C@@H]1C(=O)N2C(C(=O)O)=C(COC(C)=O)CS[C@H]12)c1csc(N)n1 [Cefotaxime]	1 Fold	No	not significantly different	–	–	–	–
CO[C@@]1(NC(=O)Cc2cccs2)C(=O)N2C(C(=O)O)=C(COC(N)=O)CS[C@@H]21 [Cefoxitin]	1 Fold	No	not significantly different	–	–	–	–
CC[C@H]1OC(=O)[C@H](C)[C@@H](O[C@H]2C[C@@](C)(OC)[C@@H](O)[C@H](C)O2)[C@H](C)[C@@H](O[C@@H]2O[C@H](C)C[C@H](N(C)C)[C@H]2O)[C@](C)(O)C[C@@H](C)C(=O)[C@H](C)[C@@H](O)[C@]1(C)O [Erythromycin]	40 Fold	Yes	–	increased sensitivity	–	–	–
CC(=O)O[C@H]1C[C@@]2(C)[C@@H](C[C@@H](O)[C@H]3[C@@]4(C)CC[C@@H](O)[C@@H](C)[C@@H]4CC[C@@]32C)/C1=C(\CCC=C(C)C)C(=O)O [Fusidic acid]	94 Fold	Yes	not significantly different	–	–	–	–
CCC[C@@H]1C[C@@H](C(=O)N[C@@H]([C@H]2O[C@H](SC)[C@H](O)[C@@H](O)[C@H]2O)[C@@H](C)O)N(C)C1 [Lincomycin]	145 Fold	Yes	not significantly different	–	–	–	–
CCn1cc(C(=O)O)c(=O)c2ccc(C)nc21 [Nalidixic acid]	1 Fold	No	–	–	does not show increased sensitivity	–	–
NC[C@H]1O[C@H](O[C@H]2[C@H](O)[C@@H](O[C@H]3O[C@H](CO)[C@@H](O)[C@H](N)[C@H]3O)[C@H](N)C[C@@H]2N)[C@H](N)C[C@@H]1O [Tobramycin]	51 Fold	Yes	not significantly different	–	–	–	–
COc1cc(Cc2cnc(N)nc2N)cc(OC)c1OC [Trimethoprim]	–	–	not significantly different	–	–	–	–
CN[C@H](CC(C)C)C(=O)N[C@H]1C(=O)N[C@@H](CC(N)=O)C(=O)N[C@H]2C(=O)N[C@H]3C(=O)N[C@H](C(=O)N[C@H](C(=O)O)c4cc(O)cc(O)c4-c4cc3ccc4O)[C@H](O)c3ccc(c(Cl)c3)Oc3cc2cc(c3O[C@@H]2O[C@H](CO)[C@@H](O)[C@H](O)[C@H]2O[C@H]2C[C@](C)(N)[C@H](O)[C@H](C)O2)Oc2ccc(cc2Cl)[C@H]1O [Vancomycin]	2 Fold	No	not significantly different	–	–	72.5 µg/mL (≈ 50.1 µM)	145 µg/mL (≈ 100 µM)
